Assay results taken from US20160084855A1, “Compositions and Methods for Modulation and Detection of Immune and Inflammatory Responses” (UNIVERSITY OF CONNECTICUT, priority 2013, published 2016).

Tested on: naïve CD4+CD25− T cells with T cell-depleted splenocytes (Tds)
Assay: In vitro generation of Th17 T cells
Type: cell-based, mouse
Settings: PE DHC 20 μg/ml sonicated liposomes; WT or TLR2−/− Tds; anti-CD3, GM-CSF, TGF-β; 5 days
Description: CD4+CD25− T cells (Teff) were derived from WT mice using magnetic bead purification (Miltenyi Biotec, Auburn, Calif.). T cell-depleted splenocytes (Tds) were derived from WT or TLR2^−/− mice using magnetic bead purification followed by irradiation (2600R). Teff (0.25×10^6/well) and Tds (0.75×10^6/well) were cultured in 24-well plates with anti-CD3 antibody (1 μg/ml), GM-CSF (20 ng/ml) (Pierce Inc., Thermo Fisher Scientific, Rockford, Ill.) and recombinant TGF-β (2 ng/ml) (R&D). In addition, LPS (2 μg/ml), MMP (5 μg/ml) or P. gingivalis PE DHC (20 μg/ml of sonicated liposome preparations) were added to wells to stimulate the secretion of IL-6. Cultures were harvested after 5 days, stimulated in culture for 4 hrs with phorbol myristyl acetate and ionomycin and stained for Thy1.2, intracellular IFNγ, and IL-17 and analyzed by FACS after gating on Thy 1.2+ cells.
PE DHC's ability to induce IL-6 secretion was characterized by testing its ability to induce Th17 T cell generation from cultures of naïve CD4+ CD25-T cells activated in the presence of APCs (T cell depleted splenocytes; Tds) and TGF-β. See Bettelli et al. “T(H)-17 cells in the circle of immunity and autoimmunity” Nat. Immunol. 2007, 8:345-350.

## phosphoethanolamine dihydroceramide [PE DHC]
  Generation of Th17 T cells: resulted in the generation of Th17 T cells in cultures containing WT but not TLR2^−/− Tds
